# According to patent publication US6093717A, “Imidazopyridine thrombin inhibitors” (Merck & Co., Inc., priority 1999, dated 2000):
# Where a name gives a salt, the structure may show the parent alone.
# Molecular target: human α-thrombin (Homo sapiens, UniProt P00734)
# Experiment: In vitro assay for determining proteinase inhibition: human α-thrombin
# Type: biochemical
# Settings: 25° C., 0.05 M TRIS buffer pH 7.4, 0.15 M NaCl, 0.1% PEG, class symbols, read-out: Inhibitory activity (Ki)
# Description: In Vitro Assay For Determining Proteinase Inhibition
# The assays were carried out at 25° C. in 0.05 M TRIS buffer pH 7.4, 0.15 M NaCl, 0.1% PEG. Trypsin assays also contained 1 mM CaCl2.
# Concentrations of stock solutions of Z-GPR-afc were determined from measurements of absorbance at 380 nm of the 7-amino-4-trifluoromethyl coumarin produced upon complete hydrolysis of an aliquot of the stock solution by thrombin.
# Times required to achieve equilibration between enzyme and inhibitor were determined in control experiments. Initial velocities of product formation in the absence (Vo) or presence of inhibitor (Vi) were measured. Assuming competitive inhibition, and that unity is negligible compared Km /[S], […] (where [S], [I], and e respectively represent the total concentrations, of substrate, inhibitor and enzyme), the equilibrium constant (Ki) for dissociation of the inhibitor from the enzyme can be obtained from the dependence of Vo /Vi on [I] shown in equation 1.
row,Structure (SMILES),Ki
1,"Cc1cnc(NCCc2ccccc2)c(=O)n1CC(=O)NCc1ccc2nccn2c1 [Example 1, dihydrochloride]",> 20 nM
2,"Cc1cc(CNC(=O)Cn2c(C)cnc(NCCc3ccccc3)c2=O)cn2ccnc12 [Example 3, dihydrochloride]",> 20 nM
3,"Cc1cc2nccn2cc1CNC(=O)Cn1c(C)cnc(NCCc2ccccc2)c1=O [Example 4, dihydrochloride]",> 20 nM
4,"Cc1cnc(NCCc2ccccc2)c(=O)n1CC(=O)NCc1ccn2ccnc2c1 [Example 5, 3-(2-Phenethyleneamino)-6-methyl-1-(6-methylenecarboxamidomethylene-imidazo[1,2-a]pyridinyl)-pyrazinone]",> 20 nM
5,"Cc1cc(S(=O)(=O)CC2CCC2)c(N)c(=O)n1CC(=O)NCc1ccc2nccn2c1C [Example 6, 3-Amino-4-cyclobutylmethylenesulfonyl-6-methyl-1-(4-methyl-5-methylenecarboxamidomethyleneimidazo[1,2-a]pyridinyl)-pyridinone hydrochloride]",< 20 nM
6,"Cc1cnc(NCCc2ccccn2)c(=O)n1CC(=O)NCc1ccc2nccn2c1C [Example 7, 3-[2-(2-Pyridyl)ethyleneamino]-6-methyl-1-(4-methyl-5-methylenecarboxamidomethyleneimidazo[1,2-a]pyridinyl)-pyrazinone]",< 20 nM
7,"Cc1ccc(NS(=O)(=O)Cc2ccccc2)c(=O)n1CC(=O)NCc1ccc2nccn2c1C [Example 8, hydrochloride]",< 20 nM
8,"Cc1cc2c(c(=O)n1CC(=O)NCc1ccc3nccn3c1C)NC(=O)[C@H](Cc1ccccc1)C2 [Example 9, [R]-7-(4-methyl-5-methylenecarboxamidomethyleneimidazo[1,2-a]pyridinyl)-3-benzyl-6-methyl-2-oxo-1,2,3,4-tetrahydro-1,7-naphthiridin-[7H]-8-one]",< 20 nM
9,"CC[C@H](C)CC1Cc2cc(C)n(CC(=O)NCc3ccc4nccn4c3C)c(=O)c2NC1=O (stereo partly drawn) [Example 10, 7-(4-methyl-5-methylenecarboxamidomethyleneimidazo[1,2-a]pyridinyl)-3-[RS]-(2-[S]-methylbutyl)-6-methyl-2-oxo-1,2,3,4-tetrahydro-1,7-naphthiridin-[7H]-8-one]",< 20 nM
